# Source: PMC8617944, “Preclinical Pharmacokinetics and Acute Toxicity in Rats of 5-{[(2E)-3-Bromo-3-carboxyprop-2-enoyl]amino}-2-hydroxybenzoic Acid: A Novel 5-Aminosalicylic Acid Derivative with Potent Anti-Inflammatory Activity” (Molecules, 2021)
# Values joined by “and” are separate entries in the source; they are usually repeats but may differ in a detail not shown here. Identical values can stand only once. Like-named read-outs stand apart in the source and are kept apart here.
# Test: Distribution of C1 in tissues
# Format: in vivo, Wistar rats
# Details: p.o. 75 mg/kg, 75 mg/kg; for concentration at 10 min / concentration at 30 min / concentration at 90 min / concentration at 3 h / concentration at 6 h: male, Wistar, rat, po
# Method: Fifteen male Wistar rats were distributed in five groups (n = 3) and rats were orally administered C1 at a single dose of 75 mg/kg. Subsequently, a group of animals was sacrificed (n = 3) at 10, 30, 90, 180, and 360 min. […] All tissues and organs were weighed on an analytical balance and immediately processed. Each tissue sample was homogenized with saline solution in a 1:3 (wt/v) ratio. The preparation process for analysis was the same as described above for plasma samples [57] (File S8).
# [1] = Small intestine, individual rats
smiles,measurement,setting,value
"O=C(/C=C(/Br)C(=O)O)Nc1ccc(O)c(C(=O)O)c1 [Compound C1, 5-{[(2E)-3-bromo-3-carboxyprop-2-enoyl]amino}-2-hydroxybenzoic acid]","Concentration (µg/mL) at 30 minutes, Rat 1-3","Brain, individual rats",4.1 µg/mL and 3.2 µg/mL
same,"Concentration (µg/mL) at 90 minutes, Rat 1-3","Brain, individual rats",3.3 µg/mL and 3.8 µg/mL
same,"Concentration (µg/mL) at 3 h, Rat 1-3","Brain, individual rats",1.9 µg/mL and 3.2 µg/mL
same,"Concentration (µg/mL) at 6 h, Rat 1-3","Brain, individual rats",3.0 µg/mL
same,"Concentration (µg/mL) at 10 minutes, Rat 1-3","Colon, individual rats",7.5 µg/mL and 9.4 µg/mL
same,"Concentration (µg/mL) at 30 minutes, Rat 1-3","Colon, individual rats",10.6 µg/mL and 8.5 µg/mL and 3.9 µg/mL
same,"Concentration (µg/mL) at 90 minutes, Rat 1-3","Colon, individual rats",7.9 µg/mL and 6.8 µg/mL
same,"Concentration (µg/mL) at 3 h, Rat 1-3","Colon, individual rats",3.6 µg/mL and 6.1 µg/mL and 7.5 µg/mL
same,"Concentration (µg/mL) at 10 minutes, Rat 1-3","Hearth, individual rats",8.0 µg/mL and 1.3 µg/mL and 12.4 µg/mL
same,"Concentration (µg/mL) at 30 minutes, Rat 1-3","Hearth, individual rats",4.4 µg/mL and 2.6 µg/mL
same,"Concentration (µg/mL) at 90 minutes, Rat 1-3","Hearth, individual rats",3.9 µg/mL and 3.0 µg/mL
same,"Concentration (µg/mL) at 3 h, Rat 1-3","Hearth, individual rats",2.2 µg/mL and 4.0 µg/mL
same,"Concentration (µg/mL) at 10 minutes, Rat 1-3","Kidney, individual rats",14.1 µg/mL and 11.2 µg/mL and 22.6 µg/mL
same,"Concentration (µg/mL) at 30 minutes, Rat 1-3","Kidney, individual rats",9.1 µg/mL and 5.4 µg/mL
same,"Concentration (µg/mL) at 90 minutes, Rat 1-3","Kidney, individual rats",6.1 µg/mL and 4.7 µg/mL
same,"Concentration (µg/mL) at 3 h, Rat 1-3","Kidney, individual rats",4.2 µg/mL and 3.3 µg/mL and 6.8 µg/mL
same,"Concentration (µg/mL) at 10 minutes, Rat 1-3","Liver, individual rats",5.1 µg/mL and 4.4 µg/mL
same,"Concentration (µg/mL) at 30 minutes, Rat 1-3","Liver, individual rats",7.2 µg/mL and 6.4 µg/mL
same,"Concentration (µg/mL) at 90 minutes, Rat 1-3","Liver, individual rats",2.6 µg/mL and 5.6 µg/mL and 5.1 µg/mL
same,"Concentration (µg/mL) at 3 h, Rat 1-3","Liver, individual rats",5.0 µg/mL and 2.6 µg/mL and 7.0 µg/mL
same,"Concentration (µg/mL) at 10 minutes, Rat 1-3","Lung, individual rats",23.3 µg/mL and 6.2 µg/mL and 17.7 µg/mL
same,"Concentration (µg/mL) at 30 minutes, Rat 1-3","Lung, individual rats",14.6 µg/mL and 6.7 µg/mL and 10.9 µg/mL
same,"Concentration (µg/mL) at 90 minutes, Rat 1-3","Lung, individual rats",4.0 µg/mL and 13.3 µg/mL and 4.8 µg/mL
same,"Concentration (µg/mL) at 3 h, Rat 1-3","Lung, individual rats",3.9 µg/mL and 7.9 µg/mL and 10.0 µg/mL
same,"Concentration (µg/mL) at 30 minutes, Rat 1-3","Muscle, individual rats",4.0 µg/mL
same,"Concentration (µg/mL) at 90 minutes, Rat 1-3","Muscle, individual rats",3.3 µg/mL and 3.6 µg/mL
same,"Concentration (µg/mL) at 3 h, Rat 1-3","Muscle, individual rats",2.4 µg/mL and 2.6 µg/mL
same,"Concentration (µg/mL) at 30 minutes, Rat 1-3",[1],18.3 µg/mL and 23.9 µg/mL and 4.9 µg/mL
same,"Concentration (µg/mL) at 90 minutes, Rat 1-3",[1],14.1 µg/mL and 18.2 µg/mL
same,"Concentration (µg/mL) at 3 h, Rat 1-3",[1],15.4 µg/mL and 14.9 µg/mL
same,"Concentration (µg/mL) at 10 minutes, Rat 1-3","Spleen, individual rats",22.6 µg/mL and 42.7 µg/mL
same,"Concentration (µg/mL) at 30 minutes, Rat 1-3","Spleen, individual rats",15.6 µg/mL and 15.0 µg/mL
same,"Concentration (µg/mL) at 90 minutes, Rat 1-3","Spleen, individual rats",5.5 µg/mL and 17.1 µg/mL and 12.4 µg/mL
same,"Concentration (µg/mL) at 3 h, Rat 1-3","Spleen, individual rats",10.4 µg/mL and 4.7 µg/mL and 11.1 µg/mL
same,"Concentration (µg/mL) at 10 minutes, Rat 1-3","Stomach, individual rats",24.1 µg/mL and 10.3 µg/mL and 20.5 µg/mL
same,"Concentration (µg/mL) at 30 minutes, Rat 1-3","Stomach, individual rats",13.0 µg/mL and 11.8 µg/mL and 5.8 µg/mL
same,"Concentration (µg/mL) at 90 minutes, Rat 1-3","Stomach, individual rats",10.4 µg/mL and 8.4 µg/mL and 4.8 µg/mL
same,"Concentration (µg/mL) at 3 h, Rat 1-3","Stomach, individual rats",3.7 µg/mL and 8.5 µg/mL and 7.1 µg/mL
same,"Concentration (µg/mL) at 30 minutes, Rat 1-3","Testis, individual rats",4.8 µg/mL and 2.4 µg/mL
same,"Concentration (µg/mL) at 90 minutes, Rat 1-3","Testis, individual rats",2.7 µg/mL and 5.8 µg/mL and 3.5 µg/mL
same,"Concentration (µg/mL) at 3 h, Rat 1-3","Testis, individual rats",2.8 µg/mL and 3.2 µg/mL
same,concentration at 10 min,"brain, Brain, 10 min, n = 3, read-out: Average Concentration",3.7 µg/mL
same,concentration at 30 min,"brain, Brain, 30 min, n = 3, read-out: Average Concentration",3.5 µg/mL
same,concentration at 90 min,"brain, Brain, 90 min, n = 3, read-out: Average Concentration",3.4 µg/mL
same,concentration at 3 h,"brain, Brain, 3 h, n = 3, read-out: Average Concentration",2.8 µg/mL
same,concentration at 6 h,"brain, Brain, 6 h, n = 3, read-out: Average Concentration",2.5 µg/mL
same,concentration at 10 min,"brain, Brain, individual rats, read-out: Concentration (µg/mL) at 10 minutes, Rat 1-3",4.1 µg/mL
same,concentration at 30 min,"brain, Brain, individual rats, read-out: Concentration (µg/mL) at 30 minutes, Rat 1-3",3.2 µg/mL
same,concentration at 90 min,"brain, Brain, individual rats, read-out: Concentration (µg/mL) at 90 minutes, Rat 1-3",3.1 µg/mL
same,concentration at 3 h,"brain, Brain, individual rats, read-out: Concentration (µg/mL) at 3 h, Rat 1-3",3.2 µg/mL
same,concentration at 6 h,"brain, Brain, individual rats, read-out: Concentration (µg/mL) at 6 h, Rat 1-3",2.2 µg/mL
same,concentration at 10 min,"colon, Colon, 10 min, n = 3, read-out: Average Concentration",10.3 µg/mL
same,concentration at 30 min,"colon, Colon, 30 min, n = 3, read-out: Average Concentration",7.6 µg/mL
same,concentration at 90 min,"colon, Colon, 90 min, n = 3, read-out: Average Concentration",6.3 µg/mL
same,concentration at 3 h,"colon, Colon, 3 h, n = 3, read-out: Average Concentration",5.7 µg/mL
same,concentration at 6 h,"colon, Colon, 6 h, n = 3, read-out: Average Concentration",6 µg/mL
same,concentration at 10 min,"colon, Colon, individual rats, read-out: Concentration (µg/mL) at 10 minutes, Rat 1-3",14.2 µg/mL
same,concentration at 90 min,"colon, Colon, individual rats, read-out: Concentration (µg/mL) at 90 minutes, Rat 1-3",4.2 µg/mL
same,concentration at 10 min,"heart, Hearth, 10 min, n = 3, read-out: Average Concentration",7.2 µg/mL
same,concentration at 30 min,"heart, Hearth, 30 min, n = 3, read-out: Average Concentration",3.6 µg/mL
same,concentration at 90 min,"heart, Hearth, 90 min, n = 3, read-out: Average Concentration",3.2 µg/mL
same,concentration at 3 h,"heart, Hearth, 3 h, n = 3, read-out: Average Concentration",2.9 µg/mL
same,concentration at 6 h,"heart, Hearth, 6 h, n = 3, read-out: Average Concentration",2.7 µg/mL
same,concentration at 30 min,"heart, Hearth, individual rats, read-out: Concentration (µg/mL) at 30 minutes, Rat 1-3",3.8 µg/mL
same,concentration at 90 min,"heart, Hearth, individual rats, read-out: Concentration (µg/mL) at 90 minutes, Rat 1-3",2.7 µg/mL
same,concentration at 3 h,"heart, Hearth, individual rats, read-out: Concentration (µg/mL) at 3 h, Rat 1-3",2.5 µg/mL
